Experimental data taken from US20260103461A1, “ESTROGEN RECEPTOR MODULATORS AND USES THEREOF” (Olema Pharmaceuticals, Inc., priority 2022, published 2026).

biological target: T1, estrogen receptor (Homo sapiens, UniProt P03372); assay: AP (alkaline phosphatase) assay in ECC-1 cells, agonist mode and antagonist mode; assay type: cell-based; details: 3 days, absence of E2 (agonist mode) or 500 pM E2 (antagonist mode), AP activity normalized to 500 pM E2 alone
T1 construct: endogenous in cells; host or cells: ECC-1 cells
T1 sequence (P03372 1-595): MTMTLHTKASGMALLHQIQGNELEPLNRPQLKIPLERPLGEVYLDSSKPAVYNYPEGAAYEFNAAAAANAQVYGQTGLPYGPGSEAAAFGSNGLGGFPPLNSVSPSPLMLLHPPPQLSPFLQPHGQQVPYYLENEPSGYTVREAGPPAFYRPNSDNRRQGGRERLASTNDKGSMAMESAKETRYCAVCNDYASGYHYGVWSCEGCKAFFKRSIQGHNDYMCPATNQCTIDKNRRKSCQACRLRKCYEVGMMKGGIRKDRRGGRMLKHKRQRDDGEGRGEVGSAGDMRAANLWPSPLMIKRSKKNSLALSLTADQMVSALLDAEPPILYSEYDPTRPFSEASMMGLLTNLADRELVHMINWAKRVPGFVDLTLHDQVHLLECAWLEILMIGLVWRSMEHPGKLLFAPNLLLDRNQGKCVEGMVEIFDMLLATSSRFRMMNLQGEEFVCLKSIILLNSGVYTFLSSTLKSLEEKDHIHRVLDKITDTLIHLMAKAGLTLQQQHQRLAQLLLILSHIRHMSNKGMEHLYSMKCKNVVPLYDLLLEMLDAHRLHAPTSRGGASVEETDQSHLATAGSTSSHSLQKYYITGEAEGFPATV
Description: ECC-1 cells were trypsinized and resuspended in hormone-depleted media and plated at a density of 15 k cells per well into a 96-well plate for at least 4 hours. Cells were treated with test compounds in the absence of E2 (for agonist mode) or in the presence of 500 pM E2 (for antagonist mode) for 3 days and plates were subsequently frozen at −80° C. Thawed plates were incubated with a chromogenic substrate of AP, p-nitrophenyl phosphate (Thermo Fisher Scientific), for 40 minutes at 42° C., and absorbances were read at 405 nm. AP activity was normalized to the activity of 500 pM E2 alone.
The compound numbers correspond to the compound numbers of Table 1 and 2. Compounds having an activity designated as “+” provided estrogen receptor agonism having (i) at least 80% increase in the E2-normalized signal in the AP assay (agonist mode) and (ii) no more than 80% reduction in the E2-normalized signal in the AP assay (antagonist mode). Compounds having an activity designated as “++” provided estrogen receptor antagonism having (i) between 10% and 80% increase in the E2-normalized signal in the AP assay (agonist mode) and (ii) between 10% and 80% reduction in the E2-normalized signal in the AP assay (antagonist mode).

SMILES | Activity (estrogen receptor modulation, agonism and antagonism)
C[C@@H]1Cc2c([nH]c3ccccc23)[C@@H](c2ccc(O[C@H]3CCN(CCC(F)F)C3)s2)N1CC(C)(C)F [Example I-8, (1S,3R)-1-(5-(((S)-1-(3,3-difluoropropyl)pyrrolidin-3-yl)oxy)thiophen-2-yl)-2-(2-fluoro-2-methylpropyl)-3-methyl-2,3,4,9-tetrahydro-1H-pyrido[3,4-b]indole] | ++ (estrogen receptor antagonism having (i) between 10% and 80% increase in the E2-normalized signal in the AP assay (agonist mode) and (ii) between 10% and 80% reduction in the E2-normalized signal in the AP assay (antagonist mode))
C[C@@H]1Cc2c([nH]c3ccccc23)[C@@H](c2cnc(O[C@H]3CN(CCCF)C[C@@H]3F)s2)N1CC(F)(F)CO [Example I-32, 2,2-difluoro-3-[(1S,3R)-1-[2-[(3S,4S)-4-fluoro-1-(3-fluoropropyl)pyrrolidin-3-yl]oxythiazol-5-yl]-3-methyl-1,3,4,9-tetrahydropyrido[3,4-b]indol-2-yl]propan-1-ol] | + (estrogen receptor agonism having (i) at least 80% increase in the E2-normalized signal in the AP assay (agonist mode) and (ii) no more than 80% reduction in the E2-normalized signal in the AP assay (antagonist mode))
C[C@@H]1Cc2c([nH]c3ccccc23)[C@@H](c2ncc(O[C@@H]3CCN(CCCF)C3)s2)N1CC(C)(C)F [Example I-11, 2-[(1S,3R)-2-(2-fluoro-2-methyl-propyl)-3-methyl-1,3,4,9-tetrahydropyrido[3,4-b]indol-1-yl]-5-[(3R)-1-(3-fluoropropyl)pyrrolidin-3-yl]oxy-thiazole] | ++ (estrogen receptor antagonism having (i) between 10% and 80% increase in the E2-normalized signal in the AP assay (agonist mode) and (ii) between 10% and 80% reduction in the E2-normalized signal in the AP assay (antagonist mode))
C[C@@H]1C[C@@H](Oc2ncc([C@@H]3c4[nH]c5ccccc5c4C[C@@H](C)N3CC(F)(F)CO)s2)CN1CCCF [Example I-30, 2,2-difluoro-3-[(1S,3R)-1-[2-[(3R,5R)-1-(3-fluoropropyl)-5-methyl-pyrrolidin-3-yl]oxythiazol-5-yl]-3-methyl-1,3,4,9-tetrahydropyrido[3,4-b]indol-2-yl]propan-1-ol] | + (estrogen receptor agonism having (i) at least 80% increase in the E2-normalized signal in the AP assay (agonist mode) and (ii) no more than 80% reduction in the E2-normalized signal in the AP assay (antagonist mode))
C[C@@H]1Cc2c([nH]c3ccccc23)[C@@H](c2cnc(O[C@@H]3CCN(CCCF)C3)s2)N1CC(F)(F)CO [Example I-28, 2,2-difluoro-3-[(1S,3R)-1-[2-[(3R)-1-(3-fluoropropyl)pyrrolidin-3-yl]oxythiazol-5-yl]-3-methyl-1,3,4,9-tetrahydropyrido[3,4-b]indol-2-yl]propan-1-ol] | +++ (estrogen receptor antagonism (i) with pIC50 greater than 7.5 and at least a 10% reduction in the E2-normalized signal in the AP assay (antagonist mode); and no more than 10% increase in E2-normalized signal in the AP assay (agonist mode))
C[C@@H]1Cc2c([nH]c3ccccc23)[C@@H](c2cnc(O[C@@H]3C[C@H](C)N(CCCF)C3)s2)N1CC(F)(F)CO [Example I-29, 2,2-difluoro-3-((1S,3R)-1-(2-(((3R,5S)-1-(3-fluoropropyl)-5-methylpyrrolidin-3-yl)oxy)thiazol-5-yl)-3-methyl-1,3,4,9-tetrahydro-2H-pyrido[3,4-b]indol-2-yl)propan-1-ol] | + (estrogen receptor agonism having (i) at least 80% increase in the E2-normalized signal in the AP assay (agonist mode) and (ii) no more than 80% reduction in the E2-normalized signal in the AP assay (antagonist mode))
C[C@@H]1Cc2c([nH]c3ccccc23)[C@@H](c2ccc(O[C@@H]3CCN(CCF)C3)s2)N1CC(C)(C)F [Example I-17, (1S,3R)-1-[5-[(3R)-1-(2-fluoroethyl)pyrrolidin-3-yl]oxy-2-thienyl]-2-(2-fluoro-2-methyl-propyl)-3-methyl-1,3,4,9-tetrahydropyrido[3,4-b]indole] | + (estrogen receptor agonism having (i) at least 80% increase in the E2-normalized signal in the AP assay (agonist mode) and (ii) no more than 80% reduction in the E2-normalized signal in the AP assay (antagonist mode))
CCN1CC[C@@H](Oc2ccc([C@@H]3c4[nH]c5ccccc5c4C[C@@H](C)N3CC(C)(C)F)s2)C1 [Example I-14, (1S,3R)-1-[5-[(3R)-1-ethylpyrrolidin-3-yl]oxy-2-thienyl]-2-(2-fluoro-2-methyl-propyl)-3-methyl-1,3,4,9-tetrahydropyrido[3,4-b]indole] | + (estrogen receptor agonism having (i) at least 80% increase in the E2-normalized signal in the AP assay (agonist mode) and (ii) no more than 80% reduction in the E2-normalized signal in the AP assay (antagonist mode))
C[C@@H]1Cc2c([nH]c3ccccc23)[C@@H](c2ccc(O[C@@H]3CCN(CCCF)C3)s2)N1CC(F)(F)CO [Example I-13, 2,2-difluoro-3-[(1S,3R)-1-[5-[(3R)-1-(3-fluoropropyl)pyrrolidin-3-yl]oxy-2-thienyl]-3-methyl-1,3,4,9-tetrahydropyrido[3,4-b]indol-2-yl]propan-1-ol] | +++ (estrogen receptor antagonism (i) with pIC50 greater than 7.5 and at least a 10% reduction in the E2-normalized signal in the AP assay (antagonist mode); and no more than 10% increase in E2-normalized signal in the AP assay (agonist mode))
C[C@@H]1Cc2c([nH]c3ccccc23)[C@@H](c2cnc(O[C@H]3CN(CCCF)C[C@H]3F)s2)N1CC(F)(F)CO [Example I-33, 2,2-difluoro-3-[(1S,3R)-1-[2-[(3S,4R)-4-fluoro-1-(3-fluoropropyl)pyrrolidin-3-yl]oxythiazol-5-yl]-3-methyl-1,3,4,9-tetrahydropyrido[3,4-b]indol-2-yl]propan-1-ol] | +++ (estrogen receptor antagonism (i) with pIC50 greater than 7.5 and at least a 10% reduction in the E2-normalized signal in the AP assay (antagonist mode); and no more than 10% increase in E2-normalized signal in the AP assay (agonist mode))
C[C@@H]1Cc2c([nH]c3ccccc23)[C@@H](c2ncc(OC3CN(CCCF)C3)s2)N1CC(F)(F)CO [Example I-22, 2,2-difluoro-3-[(1S,3R)-1-[5-[1-(3-fluoropropyl)azetidin-3-yl]oxythiazol-2-yl]-3-methyl-1,3,4,9-tetrahydropyrido[3,4-b]indol-2-yl]propan-1-ol] | ++ (estrogen receptor antagonism having (i) between 10% and 80% increase in the E2-normalized signal in the AP assay (agonist mode) and (ii) between 10% and 80% reduction in the E2-normalized signal in the AP assay (antagonist mode))
C[C@@H]1Cc2c([nH]c3ccccc23)[C@@H](c2ccc(OC3CN(CCCF)C3)s2)N1CC(C)(C)F [Example I-2, 3-({5-[(1S,3R)-2-(2-fluoro-2-methylpropyl)-3-methyl-1H,2H,3H,4H,9H-pyrido[3,4-b]indol-1-yl]thiophen-2-yl}oxy)-1-(3-fluoropropyl)azetidine] | ++ (estrogen receptor antagonism having (i) between 10% and 80% increase in the E2-normalized signal in the AP assay (agonist mode) and (ii) between 10% and 80% reduction in the E2-normalized signal in the AP assay (antagonist mode))
C[C@@H]1Cc2c([nH]c3ccccc23)[C@@H](c2cnc(OC3CN(CCCF)C3)s2)N1CC(F)(F)CO [Example I-31, 2,2-difluoro-3-[(1S,3R)-1-[2-[1-(3-fluoropropyl)azetidin-3-yl]oxythiazol-5-yl]-3-methyl-1,3,4,9-tetrahydropyrido[3,4-b]indol-2-yl]propan-1-ol] | ++ (estrogen receptor antagonism having (i) between 10% and 80% increase in the E2-normalized signal in the AP assay (agonist mode) and (ii) between 10% and 80% reduction in the E2-normalized signal in the AP assay (antagonist mode))
C[C@@H]1Cc2c([nH]c3ccccc23)[C@@H](c2ncc(O[C@@H]3CCN(CCCF)C3)s2)N1CC(F)(F)CO [Example I-24, 2,2-difluoro-3-[(1S,3R)-1-[5-[(3R)-1-(3-fluoropropyl)pyrrolidin-3-yl]oxythiazol-2-yl]-3-methyl-1,3,4,9-tetrahydropyrido[3,4-b]indol-2-yl]propan-1-ol] | ++ (estrogen receptor antagonism having (i) between 10% and 80% increase in the E2-normalized signal in the AP assay (agonist mode) and (ii) between 10% and 80% reduction in the E2-normalized signal in the AP assay (antagonist mode))
